Laboratory results as given in ChEMBL document CHEMBL5352426, “Synthesis and anti-tumor activity of nitrogen-containing derivatives of the natural product diphyllin” (Eur J Med Chem, 2022).
Calls of active or inactive are those of the source. No cut-off for these calls is given here.

Columns and labels:
[1] = Antiproliferative activity against human L02 cells assessed as inhibition of cell proliferation at 1 uM incubated for 72 hrs by SRB assay relative to control; assay type: toxicity, cell-based
MIA PaCa-2 [2] = experiment: Antiproliferative activity against human MIA PaCa-2 cells assessed as inhibition of cell proliferation at 1 uM incubated for 72 hrs by SRB assay relative to control; assay type: functional
CFPAC-1 [3] = experiment: Antiproliferative activity against human CFPAC-1 cells assessed as inhibition of cell proliferation at 1 uM incubated for 72 hrs by SRB assay relative to control; assay type: functional
PaTu 8988t [4] = experiment: Antiproliferative activity against human PaTu 8988t cells assessed as inhibition of cell proliferation at 1 uM incubated for 72 hrs by SRB assay relative to control; assay type: functional
Panc02 [5] = experiment: Antiproliferative activity against mouse Panc02 cells assessed as inhibition of cell proliferation at 1 uM incubated for 72 hrs by SRB assay relative to control; assay type: functional
CFPAC-1 [6] = experiment: Inhibition of autophagy at later stage in human CFPAC-1 cells assessed as increase in LC3-II/LC3-I ratio at 10 to 1000 nM incubated for 24 hrs by Western blot analysis; assay type: functional, cell-based; settings: dose 10-1000 nM
CFPAC-1 [7] = experiment: Downregulation of CDK4 expression level in human CFPAC-1 cells incubated for 24 hrs by Western blot analysis; assay type: functional, cell-based; settings: dose 10-1000 nM
CFPAC-1 [8] = experiment: Downregulation of cyclin D1 expression level in human CFPAC-1 cells incubated for 24 hrs by Western blot analysis; assay type: functional, cell-based; settings: dose 10-1000 nM
CFPAC-1 [9] = experiment: Effect on beclin-1 level in human CFPAC-1 cells at 10 to 1000 nM incubated for 24 hrs by Western blot analysis; assay type: functional, cell-based; settings: dose 10-1000 nM
CFPAC-1 [10] = experiment: Inhibition of autophagy at later stage in human CFPAC-1 cells assessed as increase in LC3-II/LC3-I ratio at 1 uM incubated for 24 hrs in presence of chloroquine by Western blot analysis; assay type: functional, cell-based
[11] = Antiproliferative activity against human L02 cells assessed as inhibition of cell proliferation incubated for 72 hrs by SRB assay; assay type: toxicity, cell-based
MIA PaCa-2 [12] = experiment: Antiproliferative activity against human MIA PaCa-2 cells assessed as inhibition of cell proliferation incubated for 72 hrs by SRB assay; assay type: functional, cell-based; settings: MIA PaCa-2, 72 h
CFPAC-1 [13] = experiment: Antiproliferative activity against human CFPAC-1 cells assessed as inhibition of cell proliferation incubated for 72 hrs by SRB assay; assay type: functional, cell-based; settings: CFPAC-1, 72 h
PaTu 8988t [14] = experiment: Antiproliferative activity against human PaTu 8988t cells assessed as inhibition of cell proliferation incubated for 72 hrs by SRB assay; assay type: functional, cell-based
Panc02 [15] = experiment: Antiproliferative activity against mouse Panc02 cells assessed as inhibition of cell proliferation incubated for 72 hrs by SRB assay; assay type: functional, cell-based; settings: Panc02, 72 h
[16] = Metabolic stability in human liver microsome assessed as half life; assay type: ADME; settings: liver microsomes
[17] = Metabolic stability in human liver microsome assessed as intrinsic clearance; assay type: ADME; settings: liver microsomes, read-out: CLH
[18] = Metabolic stability in human liver microsome assessed as hepatic clearance; assay type: ADME; settings: microsomes
[19] = Metabolic stability in mouse liver microsome assessed as half life; assay type: ADME; settings: liver microsomes
[20] = Metabolic stability in mouse liver microsome assessed as intrinsic clearance; assay type: ADME; settings: liver microsomes, read-out: CLH
[21] = Metabolic stability in mouse liver microsome assessed as hepatic clearance; assay type: ADME; settings: microsomes
[22] = Aqueous solubility of the compound at 1 to 2 mg measured after 24 hrs by HPLC-MS analysis; assay type: physicochemical; settings: aqueous (not further specified), dose 1-2 mg

| SMILES | inhibition at 72 h, 1 µM [1] [%] | inhibition at 1 µM (MIA PaCa-2 [2]) [%] | inhibition at 1 µM (CFPAC-1 [3]) [%] | inhibition at 1 µM (PaTu 8988t [4]) [%] | inhibition at 1 µM (Panc02 [5]) [%] | also measured |
| --- | --- | --- | --- | --- | --- | --- |
| COc1cc2c(OCCOCc3cn([C@H]4O[C@@H](C)[C@H](O)[C@@H](O)[C@H]4O)nn3)c3c(c(-c4ccc5c(c4)OCO5)c2cc1OC)C(=O)OC3 | 1.57 | 0.16 | 53.9 | 0.9 | 46 | – |
| COc1cc2c(N)c3c(c(-c4ccc5c(c4)OCO5)c2cc1OC)C(=O)OC3 | – | – | – | – | – | inhibition (CFPAC-1 [6]): Active; Activity (CFPAC-1 [7]): Dose-Dependent Effect; Activity (CFPAC-1 [8]): Dose-Dependent Effect; Activity (CFPAC-1 [9]): inactive; inhibition (CFPAC-1 [10]): Active |
| COc1cc2c(NS(N)(=O)=O)c3c(c(-c4ccc5c(c4)OCO5)c2cc1OC)C(=O)OC3 | 14.9 | 29 | 72.4 | 34.1 | 80.7 | – |
| COc1cc2c(OCc3cn([C@H]4O[C@@H](C)[C@H](O)[C@@H](O)[C@H]4O)nn3)c3c(c(-c4ccc5c(c4)OCO5)c2cc1OC)C(=O)OC3 | -1.75 | 0.95 | 14.9 | -2.09 | 8.85 | – |
| COc1cc2c(OCCCc3cn([C@H]4O[C@@H](C)[C@H](OC(C)=O)[C@@H](OC(C)=O)[C@H]4OC(C)=O)nn3)c3c(c(-c4ccc5c(c4)OCO5)c2cc1OC)C(=O)OC3 | 38.3 | 93.6 | 75.7 | 93.9 | 86.7 | IC50 at 72 h [11]: 494 nM; IC50 (MIA PaCa-2 [12]): 40 nM; IC50 (CFPAC-1 [13]): 7 nM; IC50 (PaTu 8988t [14]): 24 nM; IC50 (Panc02 [15]): 12 nM; half-life [16]: < 5 min; microsomal CLint [17]: > 277 µL/min/mg; CLH [18]: > 19.4 mL/min/kg; half-life [19]: < 5 min; microsomal CLint [20]: > 277 µL/min/mg; CLH [21]: > 83.2 mL/min/kg |
| COc1cc2c(OCc3cn([C@H]4O[C@@H](C)[C@H](OC(C)=O)[C@@H](OC(C)=O)[C@H]4OC(C)=O)nn3)c3c(c(-c4ccc5c(c4)OCO5)c2cc1OC)C(=O)OC3 | 21.6 | 83.7 | 65.9 | 72.5 | 76.3 | IC50 at 72 h [11]: 1230 nM; IC50 (MIA PaCa-2 [12]): 248 nM; IC50 (CFPAC-1 [13]): 97 nM; IC50 (PaTu 8988t [14]): 163 nM; IC50 (Panc02 [15]): 270 nM |
| COc1cc2c(N)c3c(c(-c4ccc5c(c4)OCO5)c2cc1OC)C(=O)OC3.Cl | – | – | – | – | – | solubility at 24 h [22]: 0.055 µg/mL |
